According to patent publication US20190010217A1, “MOBILIZING HIV-INFECTED CELLS FROM LYMPHATIC RESERVOIRS” (INDIANA UNIVERSITY RESEARCH & TECHNOLOGY CORPORATION, priority 2016, published 2019):
Entries after “also recorded” stand apart in the source; their conditions may differ.

Legend:
Nef-ER T1 cells = assay: Adhesion of Nef-ER T cells to endothelial cells (HUVEC co-culture, FACS); type: cell-based; details: HIV-Nef expressing T cells (Nef-ER T1) on HUVECs; 10 μM atorvastatin pre-incubation at least 12 hours; FIG. 5
Experimental: Nef was activated in Nef-ER cells by culturing them with RPMI1640+10% FBS (fetal bovine serum) and 1 μM 4-hydrotamoxifen for at least 6 hours or overnight at 37° C. For inhibitor use, the Nef-ER cells were pre-incubated for at least 12 hours with 10 μM atorvastatin. Other inhibitors may require shorter pre-incubations.
Approximately 100K HUVECS were seeded per well in a collagen-coated 6-well plate. Cells were incubated overnight in EGM2(LONZA) medium. Nef-ER cells were stained using 5 μM Calcein AM (Ref C3100MP, Fischer Scientific) in 1 mL of staining solution and incubated for 30 minutes at 37° C. The cells were centrifuged at 300 g for 5 min, and the cell pellet was resuspended in 2 mL RPMI+10% FBS. Cells were centrifuged at 300 g for 5 min and the supernatant was removed.
After staining, 1 μL of 1 mM 4-Hydrotamoxifen per ml of EGM2(LONZA) medium was added for final concentration of 1 μM. Stained T-cells were resuspended in EGM2 media at final concentration of 250,000 cells per ml. 250,000 stained T-cells were added to each well of 6-well plate of HUVECs for co-culture (with or without 10 μM atorvastatin to maintain inhibition) and incubated for 60 minutes. The plate was gently shaken one time after 30 minutes. Cells were washed very gently 3 times with PBS (phosphate buffered saline). Cells were then trypsinized and analyzed by fluorescence activated cell sorting (FACS).

S1P1 = S1P1 (Homo sapiens, UniProt P21453); assay: Beta arrestin-TANGO assay (luciferase reporter) in HTLA cells transfected with Nef
Source text: The role of beta arrestin in GPCR regulation, including S1P1 allows for the design and use of an S1P1 Arrestin-Tango expressing cell line (TANGO construct commercially available from AddGene) to test S1P1 signaling and its inhibitors. […] Upon activation of the S1P1 by an agonist, β-arrestin is recruited to the C-terminus of the receptor. This is followed by cleavage of the GPCR fusion protein at the TEV protease site. Cleavage results in the release of the tTA transcription factor, which after transport to the nucleus, activates transcription of the luciferase reporter gene. Thus, potential SNP1 inhibitors can be screened using the S1P1 Arresting Tango assay looking for an increase of luciferase activity indicating an increase in S1P1 signalling.
The role of beta arrestin in GPCR regulation, including S1P1, allows for the design and use of an S1P1 Arrestin-Tango expressing cell line (TANGO construct commercially available from AddGene) to test S1P1 signaling and its inhibitors. […] Upon activation of the S1P1 by an agonist, β-arrestin is recruited to the C-terminus of the receptor. This is followed by cleavage of the GPCR fusion protein at the TEV protease site. Cleavage results in the release of the tTA transcription factor, which after transport to the nucleus, activates transcription of the luciferase reporter gene.
Specifically, HTLA cells were transfected with NEF wt and analyzed for luciferase activity in response to increasing concentrations of sphingosine-phosphate (S1P).

GPCRs-Gαi signaling = details: pretreatment of lymphocytes with PTX; cited from earlier work

Sequence of S1P1 (P21453 whole entry): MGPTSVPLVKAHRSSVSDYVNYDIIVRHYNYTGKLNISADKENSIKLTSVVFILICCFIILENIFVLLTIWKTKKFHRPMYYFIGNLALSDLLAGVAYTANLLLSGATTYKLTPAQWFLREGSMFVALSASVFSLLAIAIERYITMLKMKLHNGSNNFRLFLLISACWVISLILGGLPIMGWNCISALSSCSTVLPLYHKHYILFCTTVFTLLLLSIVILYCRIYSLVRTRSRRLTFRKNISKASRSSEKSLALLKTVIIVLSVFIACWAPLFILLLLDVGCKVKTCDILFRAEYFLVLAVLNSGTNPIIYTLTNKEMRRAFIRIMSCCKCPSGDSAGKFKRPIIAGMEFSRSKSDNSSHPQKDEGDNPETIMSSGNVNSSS

CC(C)c1c(C(=O)Nc2ccccc2)c(-c2ccccc2)c(-c2ccc(F)cc2)n1CC[C@@H](O)C[C@@H](O)CC(=O)O [statin, atorvastatin]
T cell adhesion (Nef-ER T1 cells): reduces T cell adhesion

sphingosine-phosphate [S1P]
β-arrestin recruitment (luciferase activity) in response to increasing concentrations (S1P1; HTLA cells transfected with NEF wt, increasing concentrations of S1P, FIG. 7): more activation | β-arrestin activation (luciferase activity) (S1P1; HTLA cells transfected with Nef, treated with 1mM S1P and/or FTY720, FIG. 8): significantly more activation; also recorded: increase in β-arrestin activation

Pertussis toxin
retention of T cells in lymph nodes by fingolimod (GPCRs-Gαi signaling): prevented the retention of T cells in lymph nodes
